Experimental data taken from patent publication US20140316004A1, “TREATMENT OF POULTRY FOR REDUCING THE FEED CONVERSION RATE OR FOR REDUCING THE INCIDENCE OF ASCITES” (TAMINCO N.V., priority 2006, published 2014).

Assays:
ascites [1] = conditions: coenzyme Q added to high-calorie pelletized feed, growth rate higher than 50 g/day; cited from earlier work
[2] = Broiler slaughter test: production performance (mortality, growth rate, feed conversion rate); assay type: in vivo, broilers; conditions: 167 mg DMG per kg feed
From the text: (§1) To examine all the effects associated with the supplementation of dimethylglycine in fowl feed, a test was setup with broilers as model species. In this slaughter test with 64 broiler hens, 14-day old chickens were bred for 26 days, i.e. till the age of 40 days. At the beginning of the test the broilers were ad random divided in 16 groups of 4 specimens. The birds were fed with one type of feed from the first day on till the end of the test period. The type of feed was attributed on a random basis to the different housings. The animals were setup with a colored ring around their leg for identification purposes within each housing. The control feed was based on a commercial broiler crumble enriched with 5% corn oil to increase the oxidative stress in the feed. Further 1% celite was mixed into the feed as external marker to allow the determination of the apparent nutrient digestibility. The feed had the following composition: 87.65% dry matter, 6.13% ash, 18.05% crude protein, 9.13% crude fat, 4.32% crude fibre and 50.01% other carbohydrates (including 89% starch and 2% sugar). It has a (calculated) metabolizable energy value of about 13.4 MJ/kg.
(§2) In the second type of feed 167 mg of DMG was added per kilogram to the same composition of feed as described for the control feed. Over the entire test period, the broilers consumed on average about 25 mg DMG per bird per day. The housing of the broilers consisted out of circular housings with an open roof and bottom and with a total surface of 0.72 m^2. The material of the fencing was a flexible wire netting with a height of 1 m and mazes of 2×2 cm and thickness of 2 mm. The bottom was strewed with a thick layer of turf with on top a layer of wood-shavings. Feed and water were ad libitum available at all times. The average environmental temperature was maintained at 15° C. to increase the occurrence of ascites (Shlosberg A., Zadikov I., Bendheim U., Handji V., Berman E. Avian Pathology, 21, 369-382 (1992)). A conventional light scheme of 23 hours light:1 hour dark was applied
The daily growth during the two periods (between the first and fifteenth day and between the sixteenth and twentysixth day) was calculated for each surviving animal. The feed uptake for each housing was also measured during both periods. The commercial feed conversion rate was calculated for each of the housings for both periods (FCRI and FCR II) and for the total growth period. This commercial feed conversion rate was calculated by dividing the total feed consumption by the weight gain of the birds which stayed alive during the entire experiment, including also the feed consumption of the birds that died. To determine only the non-therapeutic effect of DMG on the feed conversion rate, the actual feed conversion rate of the living birds was also calculated more particularly on the basis of weight gain and the feed consumed by these living birds (based on the weight gain of the birds that died, the amount of feed consumed by these birds was detracted from the total feed consumption).

ascites [3] = assay: Broiler slaughter test: incidence of ascites and ascites heart index at autopsy; assay type: in vivo, broilers
From the text: as §1, §2
Finally there was also an autopsy on all chickens. First, the carcass weight was determined by dissection of the head, the paws, evisceration and the deduction of the average feather weight. Next, the weight of the breast, buttock and thigh muscle were determined. Also the heart, liver and abdominal fat were measured. Macroscopic lesions related to ascites were visually reviewed and described as indicated by Scheele et al. (2003) (Scheele, C. W., Van Der Klis, J. D., Kwakernaak, C., Buys, N., Decuypere, E., British Poultry Science, 44(3), 484-489 (2003)), these were: accumulation of liquid in the abdomen, a hydropericard and right heart dilatation. The latter was quantified by the ascites heart index (AHD being the ratio of the dry weight of the right ventricle to the dry weight of both ventricles after freeze drying.

[4] = 1000 mg pangamic acid per kg of feed; not affected, same as control group; cited from earlier work

Q: With coenzyme Q as the compound, how does the “mortality due to ascites” value (ascites [1]) read?
A: Its value is “reduced considerably”.

Q: For `CN(C)CC(=O)O` [DMG, N,N-dimethylglycine], which “Mortality (%)” value ([2]; 26-day test, 15° C, feed enriched with 5% corn oil) is on record?
A: Its value is 6.25%.

Q: And the “Growth rate (g/d) Phase I (days 1-15)” value ([2]; days 1-15)?
A: Its value is 70 g/day.

Q: What about the “Commercial feed conversion FCR I (days 1-15)” value ([2]; days 1-15, includes feed of birds that died) of the same compound?
A: Its value is 2.23.

Q: And the “Actual feed conversion FCR I (days 1-15)” value ([2]; days 1-15, living birds only)?
A: The value was 2.07.

Q: And the “Growth rate (g/d) Total (days 1-26)” value ([2]; days 1-26)?
A: The value was 77 g/day.

Q: What about the “Commercial feed conversion FCR total (days 1-26)” value ([2]; days 1-26, includes feed of birds that died) of the same compound?
A: Its value is 2.19.

Q: And the “Actual feed conversion FCR total (days 1-26)” value ([2]; days 1-26, living birds only)?
A: The value was 2.09.

Q: What about the “Growth rate (g/d) Phase II (days 15-26)” value ([2]; days 15-26) of the same compound?
A: The value was 87 g/day.

Q: And the “Commercial feed conversion FCR II (days 15-26)” value ([2]; days 15-26, includes feed of birds that died)?
A: The value was 2.17.

Q: What about the “Actual feed conversion FCR II (days 15-26)” value ([2]; days 15-26, living birds only) of the same compound?
A: Its value is 2.13.

Q: And the “Ascites (%)” value (ascites [3]; 167 mg DMG per kg feed, 26-day test, 15° C)?
A: Its value is 6.25%.

Q: What about the “AHI, all animals (ascites heart index)” value (ascites [3]; 167 mg DMG per kg feed, autopsy, all animals) of the same compound?
A: Its value is 0.242.

Q: And the “AHI, surviving animals (ascites heart index)” value (ascites [3]; 167 mg DMG per kg feed, autopsy, surviving animals)?
A: The value was 0.241.

Q: And the “Influence DMG (%) on AHI, all animals” value (ascites [3]; versus control, all animals)?
A: The value was −17.5%.

Q: And the “Influence DMG (%) on AHI, surviving animals” value (ascites [3]; versus control, surviving animals)?
A: The value was −19.2%.

Q: For `CN(C)CC(=O)OC[C@@H](O)[C@@H](O)[C@H](O)[C@@H](O)C(=O)O` [pangamic acid, 6-O-(dimethylaminoacetyl)-D-gluconic acid], which feed conversion rate [4] is on record?
A: Its feed conversion rate is “about 2.5”.
